PubChem BioAssay AID248 (DTP/NCI, 2004)
Toxic doses and inconclusive results are not listed. No stated cut-off is given here; in the data, active means T/C of 150% or more; inactive means T/C below 125%.

Test system: L1210 leukemia ip in BDF1 mice, survival T/C
Assay: NCI In Vivo Anticancer Drug Screen. Data for tumor model L1210 Leukemia (intraperitoneal) in B6D2F1 (BDF1) mice
Conditions: endpoint: mean survival time, higher = longer survival
Outline: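 Antitumor effect is assessed in tumor-bearing animals. Survival in the compound arm is compared with a vehicle-dosed control arm and expressed as their quotient.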

[1] = dose: 100.0 mg/kg/injection, schedule: Q01DX009 (ip), vehicle: Klucel (hydroxypropylcellulose) (HPC)
[2] = dose: 100.0 mg/kg/injection, schedule: Q04DX003 (ip), vehicle: Klucel (hydroxypropylcellulose) (HPC)
[3] = dose: 200.0 mg/kg/injection, schedule: Q01DX009 (ip), vehicle: Klucel (hydroxypropylcellulose) (HPC)
[4] = dose: 200.0 mg/kg/injection, schedule: Q04DX003 (ip), vehicle: Klucel (hydroxypropylcellulose) (HPC)
[5] = dose: 100.0 mg/kg/injection, schedule: Q01DX001 (ip), vehicle: saline
[6] = dose: 200.0 mg/kg/injection, schedule: Q01DX001 (ip), vehicle: saline
[7] = dose: 400.0 mg/kg/injection, schedule: Q01DX001 (ip), vehicle: saline
[8] = dose: 100.0 mg/kg/injection, schedule: Q04DX003 (ip), vehicle: saline with Tween-80
[9] = dose: 200.0 mg/kg/injection, schedule: Q04DX003 (ip), vehicle: saline with Tween-80
[10] = dose: 50.0 mg/kg/injection, schedule: Q01DX009 (ip), vehicle: saline
[11] = dose: 75.0 mg/kg/injection, schedule: Q01DX001 (ip), vehicle: other
[12] = dose: 150.0 mg/kg/injection, schedule: Q01DX001 (ip), vehicle: other
[13] = dose: 50.0 mg/kg/injection, schedule: Q01DX001 (ip), vehicle: carboxymethylcellulose (CMC)
[14] = dose: 100.0 mg/kg/injection, schedule: Q01DX001 (ip), vehicle: carboxymethylcellulose (CMC)
[15] = dose: 200.0 mg/kg/injection, schedule: Q01DX001 (ip), vehicle: carboxymethylcellulose (CMC)
[16] = dose: 400.0 mg/kg/injection, schedule: Q01DX001 (ip), vehicle: carboxymethylcellulose (CMC)
[17] = dose: 400.0 mg/kg/injection, schedule: Q04DX003 (ip), vehicle: saline with Tween-80

Measured: T/C

NC(=O)C(=O)OCc1ccccc1
inactive: dose: 100.0 mg/kg/injection, schedule: Q01DX001 (ip), vehicle: steriod suspending solution 105 % of control | dose: 200.0 mg/kg/injection, schedule: Q01DX001 (ip), vehicle: steriod suspending solution 97 % of control | dose: 400.0 mg/kg/injection, schedule: Q01DX001 (ip), vehicle: steriod suspending solution 94 % of control

CCOC(=O)C(NC(=O)NC)C(=O)OCC
inactive: [1] 98 % of control | [2] 102 % of control | [3] 93 % of control | [4] 98 % of control | dose: 400.0 mg/kg/injection, schedule: Q01DX009 (ip), vehicle: Klucel (hydroxypropylcellulose) (HPC) 102 % of control | dose: 400.0 mg/kg/injection, schedule: Q04DX003 (ip), vehicle: Klucel (hydroxypropylcellulose) (HPC) 96 % of control

O=Cc1cccc(/C=N/Nc2nnc(N/N=C/c3cccc(C=O)c3)c3ccccc23)c1
inactive: dose: 50.0 mg/kg/injection, schedule: Q01DX001 (ip), vehicle: saline 98 % of control | [5] 98 % of control | [6] 90 % of control | [7] 93 % of control

c1csc(CNCCN2CC2)c1
inactive: dose: 2.5 mg/kg/injection, schedule: Q01DX009 (ip), vehicle: saline 89 % of control | dose: 2.5 mg/kg/injection, schedule: Q04DX003 (ip), vehicle: saline 95 % of control | dose: 5.0 mg/kg/injection, schedule: Q04DX003 (ip), vehicle: saline 103 % of control | dose: 10.0 mg/kg/injection, schedule: Q04DX003 (ip), vehicle: saline 100 % of control

CC(O)CN1CCCCC1 (stereo not drawn)
inactive: dose: 100.0 mg/kg/injection, schedule: Q01DX001 (ip), vehicle: other 98 % of control | [8] 96 % of control | dose: 200.0 mg/kg/injection, schedule: Q01DX001 (ip), vehicle: other 98 % of control | [9] 96 % of control

Nc1ncc(CCCCc2ccccc2)c(=O)[nH]1
inactive: dose: 100.0 mg/kg/injection, schedule: Q01DX001 (ip), vehicle: saline with Tween-80 96 % of control | dose: 200.0 mg/kg/injection, schedule: Q01DX001 (ip), vehicle: saline with Tween-80 93 % of control | dose: 400.0 mg/kg/injection, schedule: Q01DX001 (ip), vehicle: saline with Tween-80 98 % of control

NC(N)=N/N=C/c1ccccc1Cl
inactive: dose: 4.0 mg/kg/injection, schedule: Q01DX Z (ip), vehicle: saline 97 % of control | dose: 8.0 mg/kg/injection, schedule: Q01DX Z (ip), vehicle: saline 97 % of control | dose: 16.0 mg/kg/injection, schedule: Q01DX Z (ip), vehicle: saline 102 % of control

CC(=O)Oc1cccc2ccc(/C=C/c3cccc[n+]3C)nc12
inactive: dose: 4.0 mg/kg/injection, schedule: Q01DX015 (ip), vehicle: carboxymethylcellulose (CMC) 95 % of control | dose: 8.0 mg/kg/injection, schedule: Q01DX015 (ip), vehicle: carboxymethylcellulose (CMC) 107 % of control | dose: 16.0 mg/kg/injection, schedule: Q01DX015 (ip), vehicle: carboxymethylcellulose (CMC) 97 % of control | dose: 32.0 mg/kg/injection, schedule: Q01DX015 (ip), vehicle: carboxymethylcellulose (CMC) 102 % of control

CN1CCC=C(C(=O)N2c3ccccc3CCc3ccccc32)C1
inactive: [10] 107 % of control | dose: 100.0 mg/kg/injection, schedule: Q01DX009 (ip), vehicle: saline 95 % of control | dose: 100.0 mg/kg/injection, schedule: Q04DX003 (ip), vehicle: saline 103 % of control | dose: 200.0 mg/kg/injection, schedule: Q04DX003 (ip), vehicle: saline 92 % of control

C=CCN(CC=C)CCNc1cc(C)nc(/N=C(\N)Nc2ccc(Cl)c(Cl)c2)n1
inactive: [11] 92 % of control | [12] 92 % of control | dose: 300.0 mg/kg/injection, schedule: Q01DX001 (ip), vehicle: other 92 % of control

CC(c1ccccc1)N1COc2ccc3ccccc3c2C1 (stereo not drawn)
inactive: [13] 97 % of control | dose: 50.0 mg/kg/injection, schedule: Q01DX015 (ip), vehicle: carboxymethylcellulose (CMC) 96 % of control | [14] 93 % of control | dose: 100.0 mg/kg/injection, schedule: Q01DX015 (ip), vehicle: carboxymethylcellulose (CMC) 96 % of control | [8] 94 % of control | [15] 103 % of control | dose: 200.0 mg/kg/injection, schedule: Q01DX015 (ip), vehicle: carboxymethylcellulose (CMC) 97 % of control | [9] 93 % of control | [16] 104 % of control | dose: 400.0 mg/kg/injection, schedule: Q01DX015 (ip), vehicle: carboxymethylcellulose (CMC) 90 % of control | [17] 88 % of control

COC(=O)c1nc(C(=O)OC)c(C(=O)OC)nc1C(=O)OC
inactive: [8] 88 % of control | [9] 93 % of control | [17] 102 % of control

CC1=NS(=O)(=O)NC(C)(C)C1
inactive: dose: 12.5 mg/kg/injection, schedule: Q01DX009 (ip), vehicle: saline 93 % of control | dose: 25.0 mg/kg/injection, schedule: Q01DX009 (ip), vehicle: saline 93 % of control | [13] 123 % of control | [10] 98 % of control | [14] 96 % of control | [1] 87 % of control

Cc1cccc(OS(C)(=O)=O)c1N(S(C)(=O)=O)S(C)(=O)=O
inactive: dose: 50.0 mg/kg/injection, schedule: Q01DX001 (ip), vehicle: Klucel (hydroxypropylcellulose) (HPC) 97 % of control | dose: 100.0 mg/kg/injection, schedule: Q01DX001 (ip), vehicle: Klucel (hydroxypropylcellulose) (HPC) 108 % of control | dose: 200.0 mg/kg/injection, schedule: Q01DX001 (ip), vehicle: Klucel (hydroxypropylcellulose) (HPC) 95 % of control | dose: 400.0 mg/kg/injection, schedule: Q01DX001 (ip), vehicle: Klucel (hydroxypropylcellulose) (HPC) 95 % of control

COc1ccc(NC(=O)Oc2ccccc2Cc2ccccc2)cc1
inactive: dose: 50.0 mg/kg/injection, schedule: Q01DX009 (ip), vehicle: Klucel (hydroxypropylcellulose) (HPC) 95 % of control | [1] 94 % of control | [2] 97 % of control | [3] 103 % of control | [4] 91 % of control

Cc1ccc(S)cc1.[Pb]
inactive: [13] 98 % of control | [14] 93 % of control | [15] 103 % of control | [16] 93 % of control

O=P(N=P(c1ccccc1)(c1ccccc1)c1ccccc1)(c1ccccc1)c1ccccc1
inactive: [5] 97 % of control | [6] 97 % of control | [7] 97 % of control

CC(C)C1=CC23CCC4C(C)(C(=O)O)CCCC4(C)C2CC1C1(Cl)C(Cl)=C(Cl)C(Cl)(Cl)C31Cl (stereo not drawn)
inactive: [11] 89 % of control | [12] 89 % of control

C=COCCN1C(=O)c2ccccc2C1=O
inactive: dose: 100.0 mg/kg/injection, schedule: Q04DX002 (ip), vehicle: Klucel (hydroxypropylcellulose) (HPC) 102 % of control | dose: 200.0 mg/kg/injection, schedule: Q04DX002 (ip), vehicle: Klucel (hydroxypropylcellulose) (HPC) 120 % of control | dose: 400.0 mg/kg/injection, schedule: Q04DX002 (ip), vehicle: Klucel (hydroxypropylcellulose) (HPC) 106 % of control

CC(=O)c1ccc2c(c1)CCN2
inactive: [1] 91 % of control | [3] 91 % of control

CC(C)=CCC(CC=C(C)C)c1ccncc1 (tested in a mixture with another compound)
inactive: [5] 96 % of control | [6] 98 % of control
